Reference: article PMC10375784, “Synthesis of phthalazine-based derivatives as selective anti-breast cancer agents through EGFR-mediated apoptosis: in vitro and in silico studies” (BMC Chemistry, 2023)
Where two headings read alike, the source gives them in different places.

Experiments:
VEGFR‐2 = conditions: cited from earlier work
MDA-MB-231 cells [1] = assay: MTT cytotoxicity assay, MDA-MB-231; type: cell-based
MCF-7 cells = assay: MTT cytotoxicity assay, MCF-7; type: cell-based; conditions: Homo sapiens, MCF7, 48 h, three independent trials, read-out: IC50 (μM) ± SD MCF-7
Experimental: (§1) MCF-7, HepG2 cancer cells and WISH normal cells were obtained from the National Cancer Institute in Cairo, Egypt, they were cultured in complete media of RPMI and DMEM, respectively at 5% carbon dioxide and 37 °C following standard tissue culture work. The cells were grown in “10% fetal bovine serum (FBS) and 1% penicillin–streptomycin” in 96-multiwell plate. All the synthesized compounds were screened for their cytotoxicity using 20 µL of MTT solution (Promega, USA) for 48 hours using untreated and treated cells with concentrations of (0.01, 0.1, 1, 10, and 100 µM) for 48 h. The plate was cultured for 3 h. Percentage of cell viability was calculated following this equation: 100-(ASample/AControl)X100 . An ELISA microplate reader was used to measure the absorbance at 690 nm to calculate the viability versus concentration, and the IC50 value using GraphPad prism software.

[2] = system: breast MCF-7 and MDA-MB-231 cancer cell lines; assay: SAR ranking of cytotoxicity (from Table 1); type: cell-based; conditions: Fig. 4, SAR summary
[3] = system: breast MCF-7 and MDA-MB-231 cancer cell lines; assay: SAR ranking of cytotoxicity (from Table 1); conditions: based on Table 1; cell line not stated, order follows MCF-7 values
Experimental: as §1

EGFR = target: T1, EGFR (Homo sapiens, UniProt P00533); assay: EGFR enzyme inhibition (BPS Bioscience kit, ELISA); type: biochemical; conditions: three independent replicates; for IC50: five concentrations, read-out: EGFR IC50 [nM] ± SD
T1 construct: purchased BPS Bioscience Corporation 40321
T1 sequence (P00533 25-1210): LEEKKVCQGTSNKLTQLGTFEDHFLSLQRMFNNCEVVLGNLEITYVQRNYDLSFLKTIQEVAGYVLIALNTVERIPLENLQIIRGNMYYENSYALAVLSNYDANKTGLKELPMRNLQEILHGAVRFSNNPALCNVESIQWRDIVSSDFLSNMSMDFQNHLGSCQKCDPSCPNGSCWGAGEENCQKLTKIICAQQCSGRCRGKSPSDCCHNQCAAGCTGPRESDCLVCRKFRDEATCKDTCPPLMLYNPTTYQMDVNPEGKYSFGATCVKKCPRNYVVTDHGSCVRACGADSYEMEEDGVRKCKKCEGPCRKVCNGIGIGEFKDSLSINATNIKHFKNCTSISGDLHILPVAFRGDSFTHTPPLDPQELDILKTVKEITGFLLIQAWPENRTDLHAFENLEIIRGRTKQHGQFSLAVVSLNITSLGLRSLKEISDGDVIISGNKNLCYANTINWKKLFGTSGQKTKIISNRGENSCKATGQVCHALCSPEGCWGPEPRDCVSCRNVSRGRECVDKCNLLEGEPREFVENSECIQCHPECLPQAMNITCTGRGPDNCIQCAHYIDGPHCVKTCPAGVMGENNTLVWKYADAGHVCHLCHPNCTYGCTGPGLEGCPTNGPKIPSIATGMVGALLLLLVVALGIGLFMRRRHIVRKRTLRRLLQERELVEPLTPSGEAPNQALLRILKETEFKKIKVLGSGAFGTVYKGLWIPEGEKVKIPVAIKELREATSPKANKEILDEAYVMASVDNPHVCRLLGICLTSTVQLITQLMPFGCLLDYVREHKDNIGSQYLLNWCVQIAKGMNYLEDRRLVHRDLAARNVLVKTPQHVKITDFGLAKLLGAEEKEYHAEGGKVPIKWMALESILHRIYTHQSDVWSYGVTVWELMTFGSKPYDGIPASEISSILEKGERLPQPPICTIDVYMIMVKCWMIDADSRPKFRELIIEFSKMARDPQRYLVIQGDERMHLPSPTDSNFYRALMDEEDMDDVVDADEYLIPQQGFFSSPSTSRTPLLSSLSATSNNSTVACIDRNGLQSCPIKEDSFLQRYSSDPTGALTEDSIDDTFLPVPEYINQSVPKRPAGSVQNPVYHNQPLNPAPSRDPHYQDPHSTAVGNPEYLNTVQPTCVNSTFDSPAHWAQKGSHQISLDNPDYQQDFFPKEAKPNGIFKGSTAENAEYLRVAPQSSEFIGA
Experimental: The luminescence was measured with a microplate reader at 450 nm by ELISA Reader (PerkinElmer). Inhibition percentage was calculated following this equation: 100-[Acontrol/Atreated-Control)] , IC50 was determined using GraphPad prism7 using inhibition curves at five different concentrations of each compound.

MCF-10A cells = assay: MTT cytotoxicity assay, normal breast cells MCF-10A; type: cell-based; conditions: Homo sapiens, MCF-10A; MTT, 48 h, normal breast cells; read-out: IC50 (μM) ± SD MCF-10A
[4] = as above; type: cell-based; conditions: human; MCF-10A normal breast cells, highest concentration; read-out: percentage of cell viability at the highest concentration
MDA-MB-231 cells [5] = assay: Flow cytometry Annexin V/PI apoptosis/necrosis assessment; type: cell-based; conditions: MDA-MB-231, treated at IC50 0.57 μM, 48 h
Experimental: MDA-MB-231 cells were incubated overnight in 6-well culture plates (3–5 × 10^5 cells/well) and then treated with the IC50 values for 48 h with compound 12d. After that, the cells were incubated in a 100 µL solution of Annexin binding buffer "25 mM CaCl2, 1.4 M NaCl, and 0.1 M Hepes/NaOH, pH 7.4" in the dark for 30 min with "Annexin V-FITC solution (1:100) and propidium iodide (PI) at a concentration equivalent to 10 µg/mL." The labeled cells were then extracted using the Cytoflex FACS machine. CytExpert software was used to analyze the data.

[6] = Homo sapiens, MDA-MB-231, MTT, 48 h, three independent trials, read-out: IC50 (μM) ± SD MDA-MB-231
[7] = Fig. 3, MTT, 100 µM to 0.01 µM, 48 h, cell line not given, they match MDA-MB-231
[8] = Homo sapiens, Fig. 3, MTT, 100 µM to 0.01 µM, 48 h, cell line not given, they match MDA-MB-231, read-out: IC50 (Fig. 3 curve fit)

Compound	melting point	IC50 (MDA-MB-231 cells [1]; [6])	IC50 (MCF-7 cells)	level of cytotoxic activity (Fig. 4) [2]	order of cytotoxic activity (SAR) [3]	also measured
Cc1ccc(Nc2nnc(Cc3ccncc3)c3ccccc23)cc1Br [AAC789]	–	–	–	–	–	IC50 (VEGFR‐2): 0.02 µM
O=C(Cn1nc(Cc2ccccc2)c2ccccc2c1=O)NCc1ccccc1 [Compound 6a, 2-(4-benzyl-1-oxophthalazin-2(1H)-yl)-N-benzyl acetamide]	174 to 176 °C	19.8 ± 0.74 µM	18.6 ± 0.69 µM	Third level activity (Poor cytotoxicity)	–	–
C=CCNC(=O)Cn1nc(Cc2ccccc2)c2ccccc2c1=O [Compound 6f, 2-(4-benzyl-1-oxophthalazin-2(1H)-yl)-N-allyl acetamide]	164 to 166 °C	≥ 50 µM	23.1 ± 0.94 µM	Third level activity (Poor cytotoxicity)	–	–
O=C(Cn1nc(Cc2ccccc2)c2ccccc2c1=O)N1CCCCC1 [Compound 6g, 4-benzyl-2-(2-oxo-2-(piperidin-1-yl)ethyl) phthalazin-1(2H)-one]	192 to 194 °C	–	–	–	–	–
O=C(Cn1nc(Cc2ccccc2)c2ccccc2c1=O)N1CCOCC1 [Compound 6h, 4-benzyl-2-(2-morpholino-2-oxoethyl) phthalazin-1(2H)-one]	210 to 212 °C	21.3 ± 0.64 µM	17.3 ± 0.31 µM	Third level activity (Poor cytotoxicity)	–	–
COC(=O)CNC(=O)Cn1nc(Cc2ccccc2)c2ccccc2c1=O [Compound 7a, methyl (2-(4-benzyl-1-oxophthalazin-2(1H)-yl)acetyl) glycinate]	–	26.5 ± 0.79 µM	≥ 50 µM	–	–	–
NNC(=O)CNC(=O)Cn1nc(Cc2ccccc2)c2ccccc2c1=O [Compound 8a, 2-(4-benzyl-1-oxophthalazin-2(1H)-yl)-N-(2-hydrazineyl-2-oxoethyl) acetamide]	202 to 204 °C	1.34 ± 0.13 µM	31.2 ± 1.01 µM	–	–	–
O=C(CNC(=O)Cn1nc(Cc2ccccc2)c2ccccc2c1=O)NCc1ccccc1 [Compound 10a, N-benzyl-2-(2-(4-benzyl-1-oxophthalazin-2(1H)-yl)acetamido) acetamide]	186 to 188 °C	6.4 ± 0.18 µM	≥ 50 µM	–	–	–
C=CCNC(=O)CNC(=O)Cn1nc(Cc2ccccc2)c2ccccc2c1=O [Compound 10f, N-allyl-2-(2-(4-benzyl-1-oxophthalazin-2(1H)-yl)acetamido) acetamide]	188 to 190 °C	8.6 ± 0.1 µM	15.4 ± 0.28 µM	Second level activity (Moderate cytotoxicity)	moderate cytotoxicity (IC50 ≤ 20 μM)	–
O=C(Cn1nc(Cc2ccccc2)c2ccccc2c1=O)NCC(=O)N1CCOCC1 [Compound 10h, 2-(4-benzyl-1-oxophthalazin-2(1H)-yl)-N-(2-morpholino-2-oxoethyl) acetamide]	148 to 150 °C	2.3 ± 0.1 µM	16.4 ± 0.31 µM	Second level activity (Moderate cytotoxicity)	moderate cytotoxicity (IC50 ≤ 20 μM)	–
Nc1cc(=O)[nH]n1C(=O)CNC(=O)Cn1nc(Cc2ccccc2)c2ccccc2c1=O [Compound 12d, N-(2-(5-amino-3-oxo-2,3-dihydro-1H-pyrazol-1-yl)-2-oxoethyl)-2-(4-benzyl-1-oxophthalazin-2(1H)-yl) acetamide]	–	0.57 ± 0.09 µM	1.9 ± 0.01 µM	First level activity (Potent cytotoxicity)	potent cytotoxicicty (IC50 ≤ 2.5 μM)	LogIC50 (Fig. 3 curve fit) (MDA-MB-231 cells [1]; [7]): -0.2373; IC50 (MDA-MB-231 cells [1]; [8]): 0.579 µM; cell growth inhibition at the highest concentration (MDA-MB-231 cells [1]; MDA-MB-231, highest concentration (range 100 µM to 0.01 µM), 48 h): 98.2%; inhibition at 10 µM (EGFR): 97.6 ± 2.49%; IC50 (EGFR): 21.4 ± 0.67 nM; early apoptosis (Q4, AV+/PI−) (MDA-MB-231 cells [5]): 24.2%; late apoptosis (Q2, AV+/PI+) (MDA-MB-231 cells [5]): 18.3%; necrosis fold vs control (MDA-MB-231 cells [5]): 9.25 fold; total apoptosis fold vs control (MDA-MB-231 cells [5]): 64.4 fold; total apoptotic cell death (MDA-MB-231 cells [5]; control 0.66%): 42.5%; necrosis (Q1, AV−/PI+) (MDA-MB-231 cells [5]; control 0.67%): 6.2%; IC50 (MCF-10A cells): 41.6 ± 1.8 µM; viability at 48 h, 100 µM [4]: 3%
C#Cc1cccc(Nc2ncnc3cc(OCCOC)c(OCCOC)cc23)c1 [Erlotinib, reference compound]	–	–	1.32 ± 0.04 µM	–	–	IC50 (MDA-MB-231 cells [1]; Homo sapiens, MDA-MB-231, 48 h, MTT, three independent trials, read-out: IC50 (μM) ± SD MDA-MB-231): 1 µM; IC50 (MDA-MB-231 cells [1]; MTT, 48 h, three independent trials, read-out: IC50 (μM) ± SD MDA-MB-231): 1.02 ± 0.1 µM; IC50 (MCF-10A cells): 30.9 ± 1.8 µM

Second part, led by results:

melting point	Compound	IC50 (MDA-MB-231 cells [1]; [6])	IC50 (MCF-7 cells)	level of cytotoxic activity (Fig. 4) [2]	order of cytotoxic activity (SAR) [3]	also measured
162 to 164 °C	COC(=O)CNC(=O)CNC(=O)Cn1nc(Cc2ccccc2)c2ccccc2c1=O [Compound 11a, methyl (2-(4-benzyl-1-oxophthalazin-2(1H)-yl)acetyl) glycyl glycinate]	7.2 ± 0.3 µM	11.3 ± 0.29 µM	Second level activity (Moderate cytotoxicity)	moderate cytotoxicity (IC50 ≤ 20 μM)	–
190 to 192 °C	COC(=O)C(NC(=O)CNC(=O)Cn1nc(Cc2ccccc2)c2ccccc2c1=O)C(C)C (stereo not shown) [Compound 11d, methyl (2-(4-benzyl-1-oxophthalazin-2(1H)-yl)acetyl) glycyl valinate]	0.92 ± 0.01 µM	2.1 ± 0.01 µM	–	–	LogIC50 (Fig. 3 curve fit) (MDA-MB-231 cells [1]; [7]): -0.03564; IC50 (MDA-MB-231 cells [1]; [8]): 0.921 µM; inhibition at 10 µM (EGFR): 92.9 ± 2.08%; IC50 (EGFR): 79.6 ± 1.35 nM; IC50 (MCF-10A cells): 39.4 ± 1.8 µM; viability at 48 h, 100 µM [4]: 11%
209 to 210 °C	C/C(=N\NC(=O)CNC(=O)Cn1nc(Cc2ccccc2)c2ccccc2c1=O)c1ccco1 [Compound 12c, (E)-2-(4-benzyl-1-oxophthalazin-2(1H)-yl)-N-(2-(2-(1-(furan-2-yl)ethylidene) hydrazineyl)-2-oxoethyl) acetamide]	1.89 ± 0.04 µM	1.4 ± 0.05 µM	First level activity (Potent cytotoxicity)	potent cytotoxicicty (IC50 ≤ 2.5 μM)	LogIC50 (Fig. 3 curve fit) (MDA-MB-231 cells [1]; [7]): 0.2772; IC50 (MDA-MB-231 cells [1]; [8]): 1.89 µM; inhibition at 10 µM (EGFR): 96.2 ± 2.04%; IC50 (EGFR): 65.4 ± 1.12 nM; IC50 (MCF-10A cells): 43.6 ± 1.9 µM; viability at 48 h, 100 µM [4]: 9.6%
